Measured values published in BindingDB's records for doi:10.7270/Q290226P (Vanderbilt Screening Center For Gpcrs, Ion Channels and …, 2010).

Target: T1, Muscarinic acetylcholine receptor M5 (Homo sapiens, UniProt P08912)
T1 sequence (P08912 whole entry): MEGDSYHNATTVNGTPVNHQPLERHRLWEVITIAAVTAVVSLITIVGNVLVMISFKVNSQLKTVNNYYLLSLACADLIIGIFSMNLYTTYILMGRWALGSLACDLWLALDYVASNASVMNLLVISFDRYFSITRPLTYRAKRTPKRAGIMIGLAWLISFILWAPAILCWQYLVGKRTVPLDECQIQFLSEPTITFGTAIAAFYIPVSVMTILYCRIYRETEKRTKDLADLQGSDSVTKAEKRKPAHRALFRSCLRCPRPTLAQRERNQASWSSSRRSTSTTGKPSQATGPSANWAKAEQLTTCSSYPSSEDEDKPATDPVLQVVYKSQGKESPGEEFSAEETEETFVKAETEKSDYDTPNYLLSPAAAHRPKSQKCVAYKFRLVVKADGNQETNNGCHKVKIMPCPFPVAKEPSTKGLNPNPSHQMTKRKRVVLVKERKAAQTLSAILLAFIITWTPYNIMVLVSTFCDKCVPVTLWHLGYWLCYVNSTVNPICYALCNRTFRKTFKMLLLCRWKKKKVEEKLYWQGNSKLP
Experiment: PubChem AID 2186

`O=C1C(=O)N(Cc2ccc(-c3ccsc3)cc2)c2ccc(OC(F)(F)F)cc21` was tested. Which EC50 did it give?
Its EC50 is > 442 nM.

`COc1ccc(CN2C(=O)C(=O)c3cc(OC(F)(F)F)ccc32)cc1` [VU0238429] was tested. Which EC50 did it give?
Its EC50 is 0.512 nM.

Which EC50 does the source give for `O=C1C(=O)N(Cc2ccc(-c3ccccc3)cc2)c2ccc(OC(F)(F)F)cc21` here?
The EC50 was > 442 nM.
